Measurements taken from ChEMBL document CHEMBL1157218, “Cycloviolacin H4, a hydrophobic cyclotide from Viola hederaceae” (J Nat Prod, 2006).
Bridge positions count the residues as written; N and C are the ends. Peptide text beside a SMILES is read from it.

How the values were obtained:
[1] = Toxicity against human type A red blood cells assessed as hemolytic activity after 1hr; type: cell-based, Erythrocyte; settings: read-out: HD50
[2] = Toxicity against human type A red blood cells assessed as hemolytic activity at 80 uM after 1 ht; type: cell-based, Erythrocyte; settings: read-out: Activity

| SMILES | HC50 at 1 h [1] [µM] | hemolysis at 1 h, 80 µM [2] [%] |
| --- | --- | --- |
| CC(C)C[C@@H]1NC(=O)CNC(=O)[C@H](CC(N)=O)NC(=O)[C@H](CCCNC(=N)N)NC(=O)[C@H]([C@@H](C)O)NC(=O)[C@@H]2CSSC[C@@H]3NC(=O)[C@H]([C@@H](C)O)NC(=O)CNC(=O)CNC(=O)[C@H](C(C)C)NC(=O)[C@@H]4CSSC[C@H](NC(=O)[C@H]([C@@H](C)O)NC(=O)[C@H](CSSC[C@H](NC(=O)[C@H](C(C)C)NC(=O)[C@@H]5CCCN5C1=O)C(=O)NCC(=O)N[C@@H](CCC(=O)O)C(=O)N[C@@H]([C@@H](C)O)C(=O)N4)NC(=O)CNC(=O)[C@@H]1CCCN1C(=O)[C@H]([C@@H](C)O)NC(=O)[C@H](CC(N)=O)NC3=O)C(=O)N[C@@H](CO)C(=O)N[C@@H](Cc1c[nH]c3ccccc13)C(=O)N1CCC[C@H]1C(=O)N[C@@H](C(C)C)C(=O)N2 [KALATA B1] | 12.7 | – |
| CC[C@H](C)[C@@H]1NC(=O)[C@H]([C@@H](C)O)NC(=O)CNC(=O)CNC(=O)[C@H](CC(N)=O)NC(=O)[C@H]([C@@H](C)O)NC(=O)CNC(=O)[C@H](Cc2ccc(O)cc2)NC(=O)[C@@H]2CSSC[C@@H]3NC(=O)[C@H]([C@@H](C)O)NC(=O)CNC(=O)[C@H](CC(C)C)NC(=O)[C@H](Cc4ccccc4)NC(=O)[C@@H]4CSSC[C@H](NC(=O)[C@H](CO)NC(=O)[C@H](CSSC[C@H](NC(=O)[C@H](CC(=O)O)NC(=O)[C@H](Cc5ccccc5)NC1=O)C(=O)NCC(=O)N[C@@H](CCC(=O)O)C(=O)N[C@@H](CO)C(=O)N4)NC(=O)CNC(=O)[C@H](CCCCN)NC(=O)[C@H]([C@@H](C)O)NC(=O)[C@H](Cc1ccc(O)cc1)NC3=O)C(=O)NCC(=O)N[C@@H](CCC(=O)O)C(=O)N[C@@H](Cc1c[nH]c3ccccc13)C(=O)N[C@@H](CCCCN)C(=O)N[C@@H](CC(C)C)C(=O)N2 [TRICYCLON A] (cyclo(CFLGTCYTKGCSCGEWKLCYGTNGGTIFDCGES); disulfide 1-13, 6-19, 11-30) | – | 2 |
| CC[C@H](C)[C@@H]1NC(=O)CNC(=O)[C@H](CC(N)=O)NC(=O)[C@H](Cc2ccc(O)cc2)NC(=O)[C@@H]2CSSC[C@@H]3NC(=O)[C@@H]4CCCN4C(=O)[C@H]([C@@H](C)CC)NC(=O)[C@H](Cc4c[nH]c5ccccc45)NC(=O)[C@H](C(C)C)NC(=O)[C@@H]4CSSC[C@H](NC(=O)[C@H](CO)NC(=O)[C@H](CSSC[C@H](NC(=O)[C@@H]5CCCN5C1=O)C(=O)N[C@@H](C)C(=O)N[C@@H](CCC(=O)O)C(=O)N[C@@H](CO)C(=O)N4)NC(=O)CNC(=O)[C@H](CC(C)C)NC(=O)[C@H](CC(C)C)NC(=O)[C@H](C)NC(=O)[C@H]([C@@H](C)O)NC(=O)[C@H](C(C)C)NC(=O)[C@H]([C@@H](C)O)NC3=O)C(=O)N[C@@H](CO)C(=O)N[C@@H](CC(N)=O)C(=O)N[C@@H](CC(N)=O)C(=O)N[C@@H](C(C)C)C(=O)N2 [cycloviolacin H4] (cyclo(AESCVWIPCTVTALLGCSCSNNVCYNGIPC); disulfide 4-19, 9-24, 17-30) | 5.5 | – |
